In paper PMC2812670 (Experimental neurology, 2009):

Target: T1, MAO-A (Mus musculus, UniProt Q64133)
T1 sequence (Q64133 1-526): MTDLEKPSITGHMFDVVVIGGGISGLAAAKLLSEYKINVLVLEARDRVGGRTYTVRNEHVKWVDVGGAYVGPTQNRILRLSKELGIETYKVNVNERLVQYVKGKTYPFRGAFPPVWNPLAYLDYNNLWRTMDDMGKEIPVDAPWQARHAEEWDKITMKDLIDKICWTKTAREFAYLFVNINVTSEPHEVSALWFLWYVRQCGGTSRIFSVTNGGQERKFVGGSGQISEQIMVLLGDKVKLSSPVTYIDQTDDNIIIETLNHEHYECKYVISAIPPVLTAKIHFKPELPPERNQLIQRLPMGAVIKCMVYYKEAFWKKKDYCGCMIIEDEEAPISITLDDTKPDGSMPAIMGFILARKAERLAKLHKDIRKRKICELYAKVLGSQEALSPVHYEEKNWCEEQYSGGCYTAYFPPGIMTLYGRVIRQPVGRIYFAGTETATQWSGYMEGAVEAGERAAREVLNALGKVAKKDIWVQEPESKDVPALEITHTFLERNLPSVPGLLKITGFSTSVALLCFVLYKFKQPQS
Test: Amplex Red MAO-A activity assay
Assay type: biochemical

## C#CCN(C)CCCOc1ccc(Cl)cc1Cl [clorgyline]
  Amplex Red MAO-A activity assay (tyramine substrate) in mouse brain homogenates,: 1 µM
